Source: patent US11524940B1, “Inhibitors of cysteine proteases and methods of use thereof” (priority 2020, dated 2022)

The molecules below were run against 229E Mpro (Human coronavirus 229E (HCoV-229E), UniProt P0C6X1) (assay: 229E Mpro activity). Settings: read-out: 229E Mpro EC50.
Chain of 229E Mpro (P0C6X1 2966-3267 limits assumed): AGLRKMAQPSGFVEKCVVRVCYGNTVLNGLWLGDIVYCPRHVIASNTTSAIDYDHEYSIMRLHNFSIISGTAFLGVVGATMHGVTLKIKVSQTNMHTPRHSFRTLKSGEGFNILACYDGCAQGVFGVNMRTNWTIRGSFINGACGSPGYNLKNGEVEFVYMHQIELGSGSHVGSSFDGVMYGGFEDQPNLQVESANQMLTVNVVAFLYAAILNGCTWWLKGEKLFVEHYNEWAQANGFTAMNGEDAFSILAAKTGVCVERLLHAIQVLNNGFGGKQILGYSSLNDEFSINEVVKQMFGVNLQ
Assay type: biochemical
Description: Compounds are assayed using standard methods to assess compound activity and IC50. […] The assay buffer contains 20 mM of Tris-HCl (pH 7.3), 100 mM of NaCl, 1 mM of EDTA, 5mM of TCEP and 0.1% BSA.
With COc1cccc2[nH]c(C(=O)N[C@@H](CC3CC3)C(=O)NC(C#N)CN3CCNC3=O)cc12 (mixture of isomers) [Compound 493, N-[(1S)-2-[[1-cyano-2-(2-oxoimidazolidin-1-yl)ethyl]amino]-1-(cyclopropylmethyl)-2-oxo-ethyl]-4-methoxy-1H-indole-2-carboxamide] the EC50 was greater than 30000 nM.
Work on COc1cccc2[nH]c(C(=O)N[C@@H](CC(C)C)C(=O)N[C@@H](C[C@@H]3CCNC3=O)C3OC(=O)N(c4ccccc4)C3=N)cc12 (stereo partly drawn) [Compound 359, N-[(1S)-1-[[(1S)-1-(4-imino-2-oxo-3-phenyl-oxazolidin-5-yl)-2-[(3S)-2-oxopyrrolidin-3-yl]ethyl]carbamoyl]-3-methyl-butyl]-4-methoxy-1H-indole-2-carboxamide] yielded an EC50 of 10000 to 30000 nM.
COc1cc(Cl)c2[nH]c(C(=O)N[C@@H](CC(C)(C)C)C(=O)N[C@H](C#N)C[C@@H]3CCNC3=O)cc2c1 [Compound 894] showed an EC50 of less than 2000 nM.
For COc1ccc2[nH]c(C(=O)N[C@@H](CC(C)(C)C)C(=O)N[C@H](C#N)C[C@@H]3CCCNC3=O)cc2c1Cl [Compound 808, 4-chloro-N-[(1S)-1-[[(1S)-1-cyano-2-[(3S)-2-oxo-3-piperidyl]ethyl]carbamoyl]-3,3-dimethyl-butyl]-5-methoxy-1H-indole-2-carboxamide], the EC50 was less than 2000 nM.
For N#C[C@H](C[C@@H]1CCCNC1=O)NC(=O)[C@H](CC1CC1)NC(=O)c1cc2c(F)ccc(Cl)c2[nH]1 [Compound 832, 7-chloro-N-[(1S)-2-[[(1S)-1-cyano-2-[(3S)-2-oxo-3-piperidyl]ethyl]amino]-1-(cyclopropylmethyl)-2-oxo-ethyl]-4-fluoro-1H-indole-2-carboxamide], the EC50 was less than 2000 nM.
COc1cccc2[nH]c(C(=O)N[C@@H](CC(C)C)C(=O)N[C@H](C#N)Cc3cn(C)cn3)cc12 [Compound 227, N-[(1S)-1-[[(1S)-1-cyano-2-(1-methylimidazol-4-yl)ethyl]carbamoyl]-3-methyl-butyl]-4-methoxy-1H-indole-2-carboxamide] showed an EC50 greater than 30000 nM.
With N#C[C@H](C[C@@H]1CCNC1=O)NC(=O)[C@H](CC1CC1)n1ccc2[nH]cnc2c1=O [Compound 269, (2S)-N-[(1S)-1-cyano-2-[(3S)-2-oxopyrrolidin-3-yl]ethyl]-3-cyclopropyl-2-(4-oxo-3H-imidazo[4,5-c]pyridin-5-yl)propanamide] the EC50 was greater than 30000 nM.
N#C[C@H](C[C@@H]1CCNC1=O)NC(=O)[C@@H]1CCc2ccc(NCC(=O)Oc3ccccc3)c(=O)n21 [Compound 483, phenyl 2-[[(3S)-3-[[(1S)-1-cyano-2-[(3S)-2-oxopyrrolidin-3-yl]ethyl]carbamoyl]-5-oxo-2,3-dihydro-1H-indolizin-6-yl]amino]acetate] was tested, and the EC50 was greater than 30000 nM.
For COCCOCCOc1cccc2[nH]c(C(=O)N[C@@H](CC(C)(C)C)C(=O)N[C@H](C#N)C[C@@H]3CCCNC3=O)cc12 [Compound 876, N-[1-[[1-cyano-2-[(3S)-2-oxo-3-piperidyl]ethyl]carbamoyl]-3,3-dimethyl-butyl]-4-[2-(2-methoxyethoxy)ethoxy]-1H-indole-2-carboxamide], the EC50 was less than 2000 nM.
Work on N#C[C@H](C[C@@H]1CCNC1=O)NC(=O)[C@@H]1CCCNN1C(=O)/C=C/c1ccc(Cl)cc1F [Compound 213, (3S)-2-[(E)-3-(4-chloro-2-fluoro-phenyl)prop-2-enoyl]-N-[(1S)-1-cyano-2-[(3S)-2-oxopyrrolidin-3-yl]ethyl]hexahydropyridazine-3-carboxamide] yielded an EC50 greater than 30000 nM.
With N#C[C@H](C[C@@H]1CCNC1=O)NC(=O)C1CC2(CCCCC2)CN1C(=O)c1cc2ccc(Cl)cc2[nH]1 (single isomer, unassigned) [878 (Isomer 2)] the EC50 was 10000 to 30000 nM.
For CN1CCCC[C@@]12CCN([C@H](CC1CC1)C(=O)N[C@H](C#N)C[C@@H]1CCNC1=O)C2=O [Compound 273B, (2R)-N-[(1S)-1-cyano-2-[(3S)-2-oxopyrrolidin-3-yl]ethyl]-3-cyclopropyl-2-[(5S)-6-methyl-1-oxo-2,6-diazaspiro[4.5]decan-2-yl]propanamide], the EC50 was greater than 30000 nM.
Work on N#C[C@H](C[C@@H]1CCCNC1=O)NC(=O)[C@H](CC1CC1)NC(=O)c1cc2c(Cl)cc(F)cc2[nH]1 [Compound 824, 4-chloro-N-[(1S)-2-[[(1S)-1-cyano-2-[(3S)-2-oxo-3-piperidyl]ethyl]amino]-1-(cyclopropylmethyl)-2-oxo-ethyl]-6-fluoro-1H-indole-2-carboxamide] yielded an EC50 of less than 2000 nM.
COc1cccc2[nH]c(C(=O)N3C[C@H](OC)C[C@H]3C(=O)N[C@H](C#N)C[C@@H]3CCNC3=O)cc12 [Compound 407] was tested, and the EC50 was less than 2000 nM.
N#C[C@H](C[C@@H]1CCCNC1=O)NC(=O)C1CC2(CCC2)CN1C(=O)c1cc2cccc(Cl)c2[nH]1 (single isomer, unassigned) [729 (Isomer 2)] gave an EC50 of less than 2000 nM.
Work on COc1cccc2[nH]c(C(=O)N3CC(C)(C)C[C@H]3C(=O)N[C@H](C#N)C[C@@H]3CCNC3=O)cc12 (single isomer, unassigned) [395 (Isomer 1)] yielded an EC50 of less than 2000 nM.
With CC(C)(C)C[C@H](NC(=O)c1cc2c(Cl)cccc2[nH]1)C(=O)N[C@H](C#N)C[C@@H]1CCCNC1=O [Compound 793, 4-chloro-N-[(1S)-1-[[(1S)-1-cyano-2-[(3S)-2-oxo-3-piperidyl]ethyl]carbamoyl]-3,3-dimethyl-butyl]-1H-indole-2-carboxamide] the EC50 was less than 2000 nM.
In the case of N#C[C@H](C[C@@H]1CCCNC1=O)NC(=O)[C@H](CC1CC1)NC(=O)c1cc2cc(Cl)ccc2[nH]1 [Compound 633, 5-chloro-N-[(1S)-2-[[(1S)-1-cyano-2-[(3S)-2-oxo-3-piperidyl]ethyl]amino]-1-(cyclopropylmethyl)-2-oxo-ethyl]-1H-indole-2-carboxamide], the EC50 is reported as less than 2000 nM.
COc1cccc2[nH]c(C(=O)N[C@H](CN[C@H](C#N)C[C@@H]3CCNC3=O)CC(C)(C)C)cc12 [Compound 659, N-[(1S)-1-[[[(1S)-1-cyano-2-[(3S)-2-oxopyrrolidin-3-yl]ethyl]amino]methyl]-3,3-dimethyl-butyl]-4-methoxy-1H-indole-2-carboxamide] showed an EC50 greater than 30000 nM.
CC(C)C[C@H](NC(=O)CC(C)(O)c1ccc(Cl)cc1)C(=O)N[C@H](C#N)C[C@@H]1CCNC1=O (single isomer, unassigned) [365 (Isomer 1)] showed an EC50 of 2000 to 10000 nM.
CC(C)C[C@H](NC(=O)c1nc2ncccc2[nH]1)C(=O)N[C@H](C#N)C[C@@H]1CCNC1=O [Compound 131, N-[(1S)-1-[[(1S)-1-cyano-2-[(3S)-2-oxopyrrolidin-3-yl]ethyl]carbamoyl]-3-methyl-butyl]-1H-imidazo[4,5-b]pyridine-2-carboxamide] gave an EC50 of less than 2000 nM.
Work on N#C[C@H](C[C@@H]1CCCNC1=O)NC(=O)[C@H](CC1CC1)NC(=O)c1ccc(Cl)[nH]1 [Compound 864] yielded an EC50 of less than 2000 nM.
N#C[C@H](C[C@@H]1CCCNC1=O)NC(=O)[C@@H](CC1CC1)NC(=O)c1cc2cccc(Cl)c2[nH]1 [Compound 639A, 7-Chloro-N-[(1R)-2-[[(1S)-1-cyano-2-[(3S)-2-oxo-3-piperidyl]ethyl]amino]-1-(cyclopropylmethyl)-2-oxo-ethyl]-1H-indole-2-carboxamide] was tested, and the EC50 was less than 2000 nM.
In the case of COc1cccc2[nH]c(C(=O)N3C[C@H](C(F)(F)F)C[C@H]3C(=O)N[C@H](C#N)C[C@@H]3CCNC3=O)cc12 [Compound 549, (2S,4R)-N-[(1S)-1-cyano-2-[(3S)-2-oxopyrrolidin-3-yl]ethyl]-1-(4-methoxy-1H-indole-2-carbonyl)-4-(trifluoromethyl)pyrrolidine-2-carboxamide], the EC50 is reported as less than 2000 nM.
Work on N#Cc1ccc2[nH]c(C(=O)N[C@@H](CC3CC3)C(=O)N[C@H](C#N)C[C@@H]3CCCNC3=O)cc2c1 [Compound 860] yielded an EC50 of less than 2000 nM.
Molecule COc1ccc(F)c2[nH]c(C(=O)N[C@@H](CC3CC3)C(=O)N[C@H](C#N)C[C@@H]3CCCNC3=O)cc12 [Compound 820, N-((S)-1-(((S)-1-cyano-2-((S)-2-oxopiperidin-3-yl)ethyl)amino)-3-cyclopropyl-1-oxopropan-2-yl)-7-fluoro-4-methoxy-1H-indole-2-carboxamide] has an EC50 of less than 2000 nM.
In the case of COCCOCCOc1cccc2[nH]c(C(=O)NC(CC(C)(C)C)C(=O)NC(C#N)CC3CCCNC3=O)cc12 (single isomer, unassigned) [875 (Isomer 1)], the EC50 is reported as less than 2000 nM.
N#C[C@H](C[C@@H]1CCNC1=O)NC(=O)[C@@H]1CS[C@H]2CC[C@H](NC(=O)OCc3ccccc3)C(=O)N21 [Compound 457, Benzyl((3R,6S,8aS)-3-(((S)-1-cyano-2-((S)-2-oxopyrrolidin-3-yl)ethyl)carbamoyl)-5-oxohexahydro-2H-thiazolo[3,2-a]pyridin-6-yl)carbamate] was tested, and the EC50 was greater than 30000 nM.
N#Cc1cccc2[nH]c(C(=O)N[C@@H](CC3CC3)C(=O)N[C@H](C#N)C[C@@H]3CCCNC3=O)cc12 [Compound 858] showed an EC50 of less than 2000 nM.
For COc1ccc2[nH]c(C(=O)N[C@@H](CC3CC3)C(=O)N[C@H](C#N)C[C@@H]3CCCNC3=O)cc2c1 [Compound 619, N-[(1S)-2-[[(1S)-1-cyano-2-[(3S)-2-oxo-3-piperidyl]ethyl]amino]-1-(cyclopropylmethyl)-2-oxo-ethyl]-5-methoxy-1H-indole-2-carboxamide], the EC50 was less than 2000 nM.
CCO[C@@H]1C[C@@H](C(=O)N[C@H](C#N)C[C@@H]2CCNC2=O)N(C(=O)c2cc3c(OC)cccc3[nH]2)C1 [Compound 535] showed an EC50 greater than 30000 nM.
COc1cccc2[nH]c(C(=O)N3CC(C)(C)C[C@H]3C(=O)N[C@H](C#N)C[C@@H]3CCNC3=O)cc12 (single isomer, unassigned) [395 (Isomer 2)] gave an EC50 of less than 2000 nM.
With COc1nccc2[nH]c(C(=O)N[C@@H](CC3CC3)C(=O)N[C@H](C#N)C[C@@H]3CCCNC3=O)cc12 [Compound 623, N-[(1S)-2-[[(1S)-1-cyano-2-[(3S)-2-oxo-3-piperidyl]ethyl]amino]-1-(cyclopropylmethyl)-2-oxo-ethyl]-4-methoxy-1H-pyrrolo[3,2-c]pyridine-2-carboxamide] the EC50 was greater than 30000 nM.
COc1cccc2[nH]c(C(=O)N3C[C@H](OC(C)(C)C)C[C@H]3C(=O)N[C@H](C#N)C[C@@H]3CCNC3=O)cc12 [Compound 165, (2S,4R)-4-(tert-butoxy)-N-((S)-1-cyano-2-((S)-2-oxopyrrolidin-3-yl)ethyl)-1-(4-methoxy-1H-indole-2-carbonyl)pyrrolidine-2-carboxamide] gave an EC50 greater than 30000 nM.
For COc1cccc2[nH]c(C(=O)N[C@@H](CC3CC3)C(=O)N[C@@]3(C#N)CCc4cccnc4C3)cc12 [Compound 279], the EC50 was greater than 30000 nM.
